Results taken from patent US20260191835A1, “COMBINATIONS COMPRISING A MENIN-MLL INHIBITOR AND AT LEAST ONE OTHER THERAPEUTIC AGENT” (JANSSEN PHARMACEUTICA NV, priority 2022, published 2026).

Test system: MOLM-13 cells
Experiment: In vitro proliferation (Cell Titer Glo, 6 days) of Compound 51 in combination with gilteritinib, midostaurin, idarubicin or decitabine, MOLM-13
Assay type: cell-based, human
Set-up: key to maxR call (synergy/antagonism), combination with Gilteritinib on MOLM-13 cell proliferation / Synergy/antagonism call (maxR test), MOLM-13 Cell Proliferation: synergy is indicated by “**”; antagonism is indicated by “*”; no asterisk: absence of any asterisk indicates an additive effect
Procedure: 3) In Vitro Proliferation—Menin-MLL Inhibitor in Combination with FLT3 Inhibitor (Gilteritinib or Midostaurin), DNA Intercalating Agent (Idarubicin) or Hypomethylating Agent (Decitabine)
The effect of Compound 51 in combination with gilteritinib, midostaurin, idarubicin or decitabine was determined in proliferation assays.
AML cell lines MOLM-13, OCI-AML3 and MV4-11 were purchased from DSMZ. MOLM-13 were grown in RPMI medium supplemented with 10% Fetal Bovine Serum (FBS) and 1% penicillin/streptomycin. MV4-11 cells were grown in IMDM medium supplemented with 10% FBS and 1% penicillin/streptomycin. OCI-AML3 cells were cultured in 80-90% alpha-MEM (with or without ribo- and deoxyribonucleosides)+10-20% FBS. All cell lines were cultured at 37° C. in 5% CO2 atmosphere.
AML cell lines (10-20×10^3 cells/well) were seeded in 96-well plates and grown for 6 days in serum (10%)-containing medium in the presence or absence of inhibitors at the indicated concentrations. Proliferation was analyzed by means of a Cell Titer Glo assay using the […] (Promega, Madison, WI, USA), according to the manufacturer's instructions. Data are mean with standard deviation from two to four independent experiments in technical triplicates.
R-based Biochemically Intuitive Generalized Loewe (BIGL) model implemented with a highest single agent (HSA) null model. Specifically, the BIGL methodology was applied to calculate drug-drug interactions (Van der Borght, K., Tourny, A., Bagdziunas, R. et al. BIGL: Biochemically Intuitive Generalized Loewe null model for prediction of the expected combined effect compatible with partial agonism and antagonism. Sci Rep 7, 17935 (2017); Thas, O., Tourny, A., Verbist, B., Hawinkel, S., Nazarov, M., Mutambanengwe, K., & Bijnens, L. Statistical detection of synergy: New methods and a comparative study. Pharmaceutical Statistics (2021)).
Synergy matrix results of the BIGL analysis of the cell line data with HSA as mean model calculated on the basis of the cellular metabolic activity using Cell Titer-Glo assay. Bootstrap confidence intervals are indicated. Effect sizes and their confidence intervals are shown. […] No significant average effect if zero is included in the interval.

[1] = Compound 51 0.05 μm, Gilteritinib 0.01 μM
[2] = Compound 51 0.1 μm + Decitabine 0.015 μM
[3] = Compound 51 0.1 μm + Decitabine 0.15 μM
[4] = Compound 51 0.1 μm + Idarubicin 0.001 μM
[5] = Compound 51 0.1 μm + Midostaurin 0.006 μM
[6] = Compound 51 0.1 μm + Midostaurin 0.025 μM
[7] = Compound 51 0.1 μm, Gilteritinib 0.01 μM
[8] = Compound 51 1 μm + Decitabine 0.15 μM
[9] = Compound 51 1 μm + Idarubicin 0.001 μM
[10] = Compound 51 1 μm + Midostaurin 0.006 μM
[11] = Compound 51 1 μm + Midostaurin 0.025 μM
[12] = Compound 51 10 μm + Decitabine 0.015 μM
[13] = Compound 51 10 μm + Decitabine 0.15 μM
[14] = Compound 51 10 μm, Gilteritinib 0.01 μM
[15] = Compound 51 10 μm, Gilteritinib 0.05 μM

## CC(=O)N1CCC(CN2CC[C@@H](Cc3cn(-c4ccc(F)cc4C(=O)N(C)C(C)C)c4cncc(C)c34)C2)CC1 [Compound 51]
Compound 51 0.05 μm, Gilteritinib 0.005 μM
  Effect size (BIGL, HSA null model), combination with Gilteritinib on MOLM-13 cell proliferation: −0.14
[1]
  Effect size (BIGL, HSA null model), combination with Gilteritinib on MOLM-13 cell proliferation: −0.32
  maxR call (synergy/antagonism), combination with Gilteritinib on MOLM-13 cell proliferation: **
Compound 51 0.05 μm, Gilteritinib 0.05 μM
  Effect size (BIGL, HSA null model), combination with Gilteritinib on MOLM-13 cell proliferation: −0.22
Compound 51 0.05 μm, Gilteritinib 0.1 μM
  Effect size (BIGL, HSA null model), combination with Gilteritinib on MOLM-13 cell proliferation: −0.14
Compound 51 0.05 μm, Gilteritinib 1 μM
  Effect size (BIGL, HSA null model), combination with Gilteritinib on MOLM-13 cell proliferation: −0.01
Compound 51 0.1 μm + Decitabine 0.0015 μM
  Effect size (BIGL, HSA null model), MOLM-13 Cell Proliferation: −0.01
[2]
  Effect size (BIGL, HSA null model), MOLM-13 Cell Proliferation: −0.33
  Synergy/antagonism call (maxR test), MOLM-13 Cell Proliferation: **
[3]
  Effect size (BIGL, HSA null model), MOLM-13 Cell Proliferation: −0.35
  Synergy/antagonism call (maxR test), MOLM-13 Cell Proliferation: **
Compound 51 0.1 μm + Decitabine 1.5 μM
  Effect size (BIGL, HSA null model), MOLM-13 Cell Proliferation: −0.05
Compound 51 0.1 μm + Decitabine 3 μM
  Effect size (BIGL, HSA null model), MOLM-13 Cell Proliferation: −0.03
Compound 51 0.1 μm + Idarubicin 0.0005 μM
  Effect size (BIGL, HSA null model), MOLM-13 Cell Proliferation: −0.13
[4]
  Effect size (BIGL, HSA null model), MOLM-13 Cell Proliferation: −0.42
  Synergy/antagonism call (maxR test), MOLM-13 Cell Proliferation: **
Compound 51 0.1 μm + Idarubicin 0.0025 μM
  Effect size (BIGL, HSA null model), MOLM-13 Cell Proliferation: −0.23
Compound 51 0.1 μm + Idarubicin 0.005 μM
  Effect size (BIGL, HSA null model), MOLM-13 Cell Proliferation: −0.11
Compound 51 0.1 μm + Idarubicin 0.05 μM
  Effect size (BIGL, HSA null model), MOLM-13 Cell Proliferation: 0.02
Compound 51 0.1 μm + Idarubicin 0.5 μM
  Effect size (BIGL, HSA null model), MOLM-13 Cell Proliferation: 0.02
Compound 51 0.1 μm + Midostaurin 0.0012 μM
  Effect size (BIGL, HSA null model), MOLM-13 Cell Proliferation: −0.08
[5]
  Effect size (BIGL, HSA null model), MOLM-13 Cell Proliferation: −0.23
  Synergy/antagonism call (maxR test), MOLM-13 Cell Proliferation: **
[6]
  Effect size (BIGL, HSA null model), MOLM-13 Cell Proliferation: −0.17
  Synergy/antagonism call (maxR test), MOLM-13 Cell Proliferation: **
Compound 51 0.1 μm + Midostaurin 0.05 μM
  Effect size (BIGL, HSA null model), MOLM-13 Cell Proliferation: −0.08
Compound 51 0.1 μm + Midostaurin 0.1 μM
  Effect size (BIGL, HSA null model), MOLM-13 Cell Proliferation: −0.04
Compound 51 0.1 μm + Midostaurin 0.5 μM
  Effect size (BIGL, HSA null model), MOLM-13 Cell Proliferation: −0.02
Compound 51 0.1 μm, Gilteritinib 0.0005 μM
  Effect size (BIGL, HSA null model), combination with Gilteritinib on MOLM-13 cell proliferation: −0.03
Compound 51 0.1 μm, Gilteritinib 0.005 μM
  Effect size (BIGL, HSA null model), combination with Gilteritinib on MOLM-13 cell proliferation: −0.13
[7]
  Effect size (BIGL, HSA null model), combination with Gilteritinib on MOLM-13 cell proliferation: −0.3
  maxR call (synergy/antagonism), combination with Gilteritinib on MOLM-13 cell proliferation: **
Compound 51 0.1 μm, Gilteritinib 0.05 μM
  Effect size (BIGL, HSA null model), combination with Gilteritinib on MOLM-13 cell proliferation: −0.24
Compound 51 0.1 μm, Gilteritinib 0.1 μM
  Effect size (BIGL, HSA null model), combination with Gilteritinib on MOLM-13 cell proliferation: −0.14
Compound 51 0.1 μm, Gilteritinib 1 μM
  Effect size (BIGL, HSA null model), combination with Gilteritinib on MOLM-13 cell proliferation: −0.01
Compound 51 1 μm + Decitabine 0.0015 μM
  Effect size (BIGL, HSA null model), MOLM-13 Cell Proliferation: 0.03
Compound 51 1 μm + Decitabine 0.015 μM
  Effect size (BIGL, HSA null model), MOLM-13 Cell Proliferation: −0.1
[8]
  Effect size (BIGL, HSA null model), MOLM-13 Cell Proliferation: −0.38
  Synergy/antagonism call (maxR test), MOLM-13 Cell Proliferation: **
Compound 51 1 μm + Idarubicin 0.0005 μM
  Effect size (BIGL, HSA null model), MOLM-13 Cell Proliferation: −0.08
[9]
  Effect size (BIGL, HSA null model), MOLM-13 Cell Proliferation: −0.38
  Synergy/antagonism call (maxR test), MOLM-13 Cell Proliferation: **
Compound 51 1 μm + Idarubicin 0.0025 μM
  Effect size (BIGL, HSA null model), MOLM-13 Cell Proliferation: −0.24
Compound 51 1 μm + Idarubicin 0.005 μM
  Effect size (BIGL, HSA null model), MOLM-13 Cell Proliferation: −0.11
Compound 51 1 μm + Idarubicin 0.05 μM
  Effect size (BIGL, HSA null model), MOLM-13 Cell Proliferation: 0.02
Compound 51 1 μm + Idarubicin 0.5 μM
  Effect size (BIGL, HSA null model), MOLM-13 Cell Proliferation: 0.02
Compound 51 1 μm + Midostaurin 0.0012 μM
  Effect size (BIGL, HSA null model), MOLM-13 Cell Proliferation: −0.03
[10]
  Effect size (BIGL, HSA null model), MOLM-13 Cell Proliferation: −0.18
  Synergy/antagonism call (maxR test), MOLM-13 Cell Proliferation: **
[11]
  Effect size (BIGL, HSA null model), MOLM-13 Cell Proliferation: −0.19
  Synergy/antagonism call (maxR test), MOLM-13 Cell Proliferation: **
Compound 51 1 μm + Midostaurin 0.05 μM
  Effect size (BIGL, HSA null model), MOLM-13 Cell Proliferation: −0.08
Compound 51 1 μm + Midostaurin 0.1 μM
  Effect size (BIGL, HSA null model), MOLM-13 Cell Proliferation: −0.04
Compound 51 1 μm + Midostaurin 0.5 μM
  Effect size (BIGL, HSA null model), MOLM-13 Cell Proliferation: −0.02
Compound 51 1 μm, Gilteritinib 0.0005 μM
  Effect size (BIGL, HSA null model), combination with Gilteritinib on MOLM-13 cell proliferation: 0.03
Compound 51 1 μm, Gilteritinib 0.005 μM
  Effect size (BIGL, HSA null model), combination with Gilteritinib on MOLM-13 cell proliferation: −0.1
Compound 51 1 μm, Gilteritinib 0.01 μM
  Effect size (BIGL, HSA null model), combination with Gilteritinib on MOLM-13 cell proliferation: −0.22
Compound 51 1 μm, Gilteritinib 0.05 μM
  Effect size (BIGL, HSA null model), combination with Gilteritinib on MOLM-13 cell proliferation: −0.25
Compound 51 1 μm, Gilteritinib 0.1 μM
  Effect size (BIGL, HSA null model), combination with Gilteritinib on MOLM-13 cell proliferation: −0.14
Compound 51 1 μm, Gilteritinib 1 μM
  Effect size (BIGL, HSA null model), combination with Gilteritinib on MOLM-13 cell proliferation: −0.01
Compound 51 10 μm + Decitabine 0.0015 μM
  Effect size (BIGL, HSA null model), MOLM-13 Cell Proliferation: −0.06
[12]
  Effect size (BIGL, HSA null model), MOLM-13 Cell Proliferation: −0.16
  Synergy/antagonism call (maxR test), MOLM-13 Cell Proliferation: **
[13]
  Effect size (BIGL, HSA null model), MOLM-13 Cell Proliferation: −0.38
  Synergy/antagonism call (maxR test), MOLM-13 Cell Proliferation: **
Compound 51 10 μm + Decitabine 1.5 μM
  Effect size (BIGL, HSA null model), MOLM-13 Cell Proliferation: −0.05
Compound 51 10 μm + Decitabine 3 μM
  Effect size (BIGL, HSA null model), MOLM-13 Cell Proliferation: −0.03
Compound 51 10 μm, Gilteritinib 0.0005 μM
  Effect size (BIGL, HSA null model), combination with Gilteritinib on MOLM-13 cell proliferation: −0.05
Compound 51 10 μm, Gilteritinib 0.005 μM
  Effect size (BIGL, HSA null model), combination with Gilteritinib on MOLM-13 cell proliferation: −0.17
[14]
  Effect size (BIGL, HSA null model), combination with Gilteritinib on MOLM-13 cell proliferation: −0.26
  maxR call (synergy/antagonism), combination with Gilteritinib on MOLM-13 cell proliferation: **
[15]
  Effect size (BIGL, HSA null model), combination with Gilteritinib on MOLM-13 cell proliferation: −0.27
  maxR call (synergy/antagonism), combination with Gilteritinib on MOLM-13 cell proliferation: **
Compound 51 10 μm, Gilteritinib 0.1 μM
  Effect size (BIGL, HSA null model), combination with Gilteritinib on MOLM-13 cell proliferation: −0.14
Compound 51 10 μm, Gilteritinib 1 μM
  Effect size (BIGL, HSA null model), combination with Gilteritinib on MOLM-13 cell proliferation: −0.01
In combination with Midostaurin 6 to 25 nM, MOLM-13
  combination effect on proliferation at low doses of Midostaurin: synergized
In combination with decitabine, MOLM-13, 6-day CellTiter-Glo matrix
  combination effect on proliferation (cytotoxicity): synergistically cytotoxic
In combination with gilteritinib 500 pM, MOLM-13
  combination effect on proliferation at low doses of gilteritinib: synergistic effect
In combination with gilteritinib, MOLM-13, 6-day CellTiter-Glo matrix
  combination effect on proliferation (cytotoxicity): not antagonistically cytotoxic
In combination with idarubicin, MOLM-13, 6-day Cell Titer-Glo matrix
  combination effect on proliferation (cytotoxicity): synergistically cytotoxic
In combination with midostaurin, MOLM-13, 6-day CellTiter-Glo matrix
  combination effect on proliferation (cytotoxicity): not antagonistically cytotoxic
